Reference: patent publication US8273744B2, “AMPK modulators” (priority 2008, dated 2012)
Values belong to the compound of their own block, whether it stands above or below them.

Tested on: AMPK
Experiment: In vitro assay of AMPK activity (AlphaScreen, phosphorylation of human ACC1 fragment aa 1-120)
Assay type: biochemical
Conditions: AMPK partially purified from HEK cells, 100 uM ATP, room temperature, 60 minutes, read-out: ED50 (the source's name)
Experimental: AMPK activity was measured by the phosphorylation of the amino-teminal fragment of human acetyl CoA carboxylase-type 1, amino acids 1-120. The fragment was expressed as a biotinylated fusion protein in E. coli. The enzyme assay was conducted in a 5 ul reaction mixture containing 60 mM HEPES, pH7.0, 50 mM NaCL, 1 mM DTT, 5 mM MgCL2, 0.05% Tween-20, 100 uM ATP and with 25 uM AMP as a positive control. The reaction was carried out at room temperature for 60 minutes and stopped by addition of 5 ul of stop solution consisting of 20 mM EDTA, 0.1% BSA, 1% Triton-X-100, 0.01% Tween-20, 100 mM Tris pH8.0, 1:5,000 dilution of internally producted anti-pS79 (acetyl CoA carboxylase-1) purified rabbit polyclonal antibody, 40 ug/ml of AlphaScreen (Perkin Elmer) Acceptor beads and 40 ug/ml of AlphaScreen (Perkin Elmer) donor beads. The reaction mixture was further incubated at RT for 2 hours and analyzed on Fusion-Alpha microplate analyzer.
The AMPK assay was performed in a 25 ul reaction volume with the same reaction buffer as AMPK alpha assay at 30 C for 30 minutes. The reaction was stopped with SDS-PAGE sample buffer. The phosphorylated-GST-ACC was subjected to western blot analysis with anti-phospho-serine 79-ACC1 antibody (Cell Signaling Technologies). AMPK used in the assays described above was partially purified (Blazquez, C. et. al.).
The AMP-activated protein kinase is involved in the regulation of ketone body production by astrocytes. J. Neurochem. 73: 1674 (1999)) from HEKs (a human embryonic kidney cell line) and unless otherwise specified, chemicals used in the above assay were supplied by Sigma.

SMILES: N#Cc1c[nH]c2ccc(-c3ccc(-c4ccccc4O)cc3)cc12 [Compound 5, 5-(2-Hydroxybiphenyl)-1H-indole-3-carbonitrile]
- EC50: ≤ 10 µM

SMILES: Oc1ccccc1-c1ccc(-c2ccc3[nH]ccc3c2)cc1 [Compound 1, 5-(2-Hydroxybiphenyl)-1H-indole]
- EC50: 10 to 50 µM

SMILES: O=Cc1c[nH]c2ccc(-c3ccc(-c4ccccc4O)cc3)cc12 [Compound 4, 5-(2-Hydroxybiphenyl)-1H-indole-3-carbaldehyde]
- EC50: 10 to 50 µM

SMILES: N#Cc1c(O)nc2ccc(-c3ccc(-c4ccccc4O)cc3)cc2c1O [Compound 2, 6-(2-Hydroxybiphenyl)-2,4-dihydroxyquinoline-3-carbonitrile]
- EC50: ≤ 10 µM

SMILES: N#Cc1c(O)nc2cccc(-c3ccc(-c4ccccc4O)cc3)c2c1O [Compound 3, 5-(2-Hydroxybiphenyl)-2,4-dihydroxyquinoline-3-carbonitrile]
- EC50: ≤ 10 µM

Results, then the compound that gave them:

- EC50: ≤ 10 µM
SMILES: N#Cc1c(O)nc2ncc(-c3ccc(-c4ccccc4O)cc3)cc2c1O [Compound 8, 6-(2-Hydroxybiphenyl)-2,4-dihydroxy-1,8-naphthyridine-3-carbonitrile]

- EC50: 10 to 50 µM
SMILES: N#Cc1c(O)cc2onc(-c3ccc(-c4ccccc4O)cc3)c2c1O [Compound 9, 3-(2-Hydroxybiphenyl)-4,6-dihydroxyisoxazolo[5,4-b]pyridine-5-carbonitrile]

- EC50: ≥ 50 µM
SMILES: O/N=C/c1c[nH]c2ccc(-c3ccc(-c4ccccc4O)cc3)cc12 [Compound 6, 5-(2-Hydroxybiphenyl)-1H-indole-3-carbaldehyde oxime]

- EC50: ≤ 10 µM
SMILES: N#Cc1c(O)nc2nc(-c3ccc(-c4ccccc4O)cc3)[nH]c2c1O [Compound 7, 3-(2-Hydroxybiphenyl)-4,6-dihydroxyimidazo[5,4-b]pyridine-5-carbonitrile]
